Data as given in ChEMBL document CHEMBL1201862, “PubChem BioAssay data set” (2004).
The source made the active and inactive calls.

What was measured:
[1] = biological target: T1, Dual specificity protein phosphatase 6 (Rattus norvegicus, UniProt Q64346); assay type: functional;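 note: confirmatory in vitro dose-response testing of MKP-3 inhibition; recombinant His-tagged MKP-3 made in E. coli BL21 with OMFP substrate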
T1 sequence (Q64346 whole entry): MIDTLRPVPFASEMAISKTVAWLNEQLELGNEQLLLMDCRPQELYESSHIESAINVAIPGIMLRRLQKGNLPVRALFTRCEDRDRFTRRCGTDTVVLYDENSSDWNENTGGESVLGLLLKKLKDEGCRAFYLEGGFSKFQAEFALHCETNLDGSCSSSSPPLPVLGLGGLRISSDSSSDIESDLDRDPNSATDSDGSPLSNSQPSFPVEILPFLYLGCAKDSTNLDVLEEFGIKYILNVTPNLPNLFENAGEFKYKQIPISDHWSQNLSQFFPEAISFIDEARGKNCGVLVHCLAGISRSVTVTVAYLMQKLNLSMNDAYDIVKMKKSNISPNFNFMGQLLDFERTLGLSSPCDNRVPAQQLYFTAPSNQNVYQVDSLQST

[2] = biological target: Dual specificity protein phosphatase 3 (Homo sapiens, UniProt P51452); assay: SAR VHR1 Fluorescent Assay for In Vitro dose response studies Set 2. [Related pubchem assays (depositor defined):AID1654, AID1661, AID1878]; assay type: functional
[3] = biological target: T2, Tyrosine-protein phosphatase non-receptor type 7 (Homo sapiens, UniProt P35236); assay: redox-active compounds inhibiting HePTP phosphatase – biochemical, fluorescence, mechanism study (AID 2068); assay type: functional
T2 sequence (P35236 whole entry): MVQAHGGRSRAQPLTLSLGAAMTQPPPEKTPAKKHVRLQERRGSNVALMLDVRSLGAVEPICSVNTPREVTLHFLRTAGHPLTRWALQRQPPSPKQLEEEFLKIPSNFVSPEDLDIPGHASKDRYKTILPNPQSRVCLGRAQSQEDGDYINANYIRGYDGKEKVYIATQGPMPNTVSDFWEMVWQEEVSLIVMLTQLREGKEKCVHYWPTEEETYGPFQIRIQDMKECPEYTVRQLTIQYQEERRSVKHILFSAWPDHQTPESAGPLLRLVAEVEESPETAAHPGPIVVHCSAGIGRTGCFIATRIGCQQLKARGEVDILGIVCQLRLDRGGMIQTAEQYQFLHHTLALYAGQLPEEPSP

Mu-type opioid receptor = Mu-type opioid receptor (Homo sapiens, UniProt P35372); assay: SAR Analysis of Antagonists of the MOR Receptor using an Image-Based Assay - Set 3. [Related pubchem assays (depositor defined):AID1777, AID1785, AID1786, AID1966, AID2133, AID2136, AID2284, AID2285, AID2420]; assay type: functional
[4] = biological target: T3, Kappa-type opioid receptor (Homo sapiens, UniProt P41145); assay: SAR analysis of Antagonists of the Kappa Opioid Receptor (KOR) using an Image-Based Assay - Set 4. [Related pubchem assays (depositor defined):AID1777, AID1785]; assay type: functional
[5] = biological target: T3, Kappa-type opioid receptor; assay: SAR analysis of small molecule antagonists of the kappa opioid receptor via a luminescent beta-arrestin assay - Set 4. [Related pubchem assays (depositor defined):AID1777, AID1778, AID1785, AID1786, AID1966, AID2133, AID2136, AID2285]; assay type: functional
[6] = biological target: Delta-type opioid receptor (Homo sapiens, UniProt P41143); assay: SAR Analysis of Antagonists of the DOR Receptor using an Image-Based Assay - Set 3. [Related pubchem assays (depositor defined):AID1777, AID1785]; assay type: functional;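 note: U2OS cells expressing DOR1 and beta-arrestin GFP stimulated with 100 nM SNC80; imaging of GFP-tagged beta-arrestin moving into spots after receptor activation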
Coagulation factor XII = Coagulation factor XII (Homo sapiens, UniProt P00748); assay: Factor XIIa Dose Response Confirmation from Single Well HTS. [Related pubchem assays (depositor defined):AID701]; assay type: functional
[7] = Luminescence Cell Based Dose Confirmation HTS to Identify Activators of 5'UTR Stem-Loop Driven Alpha-Synuclein mRNA Translation in H4 Neuroglioblastoma Cells. [Related pubchem assays (depositor defined):AID1813, AID1829]; assay type: functional; settings: Homo sapiens
Integrin alpha-4 = Integrin alpha-4 (Homo sapiens, UniProt P13612); assay: allosteric modulators of alpha4 integrin VLA-4 – cell-based, LIBS antibody binding, flow cytometry, SAR follow-up (AID 488791); assay type: functional
[8] = NIH3T3 cell viability loss – ATP luminescence, mouse fibroblasts, counter-screen, dose response (AID 2010); assay type: functional, cell-based;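 note: cells exposed to compound for about 90 hours before reading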
[9] = Trypanosoma cruzi growth suppression in host cells – NIH3T3 host cells, beta-gal luminescence, confirmation (AID 2044); assay type: functional, cell-based;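 note: intracellular parasites grown in NIH/3T3 mouse fibroblasts as host cells; luminescent beta-galactosidase reporter signal from transgenic T. cruzi replicating inside host cells; inhibitors lower the luminescence signal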
[10] = biological target: Protein-tyrosine kinase 2-beta (Homo sapiens, UniProt Q14289);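 note: potency of inhibitors of PYK2 kinase phosphorylation of poly-GT substrate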
[11] = viability of HCT116 lacking mutant beta-catenin – cell-based, human colon tumor, dose response (AID 1045); assay type: functional;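 note: HCT116 colon tumor cells with beta catenin knocked out; cells exposed to compound for 60 hours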
Vero = assay: inhibition of WNV-induced cytopathic effect – cell-based, CPE readout (AID 1621); assay type: functional; settings: Chlorocebus sabaeus
[12] = viability of PTEN-deleted HCT116 cells – cell-based, HCT116 PTEN knockout, dose response (AID 1047); assay type: functional;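 note: HCT116 colon tumor cells with PTEN knocked out; cells exposed to compound for 60 hours before readout; potency for loss of cell viability measured by luminescence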
CAAX prenyl protease 2 = CAAX prenyl protease 2 (Saccharomyces cerevisiae S288c, UniProt Q03530); assay type: biochemical
[13] = biological target: T3, Kappa-type opioid receptor; assay: SAR analysis of Antagonists of the Kappa Opioid Receptor (KOR) using an Image-Based Assay - Set 3. [Related pubchem assays (depositor defined):AID1777, AID1785]; assay type: functional
[14] = biological target: T3, Kappa-type opioid receptor; assay: SAR analysis of small molecule antagonists of the kappa opioid receptor via a luminescent beta-arrestin assay - Set 3. [Related pubchem assays (depositor defined):AID1777, AID1778, AID1785, AID1786, AID1966, AID2133, AID2136, AID2285, AID2495]; assay type: functional
[15] = biological target: T4, DNA repair and recombination protein RAD54-like (Homo sapiens, UniProt Q92698); assay: RAD54 Holliday junction migration blockers – biochemical, fluorescence, cherry-picked samples, dose series, confirmation (AID 651657); assay type: functional
T4 sequence (Q92698 whole entry): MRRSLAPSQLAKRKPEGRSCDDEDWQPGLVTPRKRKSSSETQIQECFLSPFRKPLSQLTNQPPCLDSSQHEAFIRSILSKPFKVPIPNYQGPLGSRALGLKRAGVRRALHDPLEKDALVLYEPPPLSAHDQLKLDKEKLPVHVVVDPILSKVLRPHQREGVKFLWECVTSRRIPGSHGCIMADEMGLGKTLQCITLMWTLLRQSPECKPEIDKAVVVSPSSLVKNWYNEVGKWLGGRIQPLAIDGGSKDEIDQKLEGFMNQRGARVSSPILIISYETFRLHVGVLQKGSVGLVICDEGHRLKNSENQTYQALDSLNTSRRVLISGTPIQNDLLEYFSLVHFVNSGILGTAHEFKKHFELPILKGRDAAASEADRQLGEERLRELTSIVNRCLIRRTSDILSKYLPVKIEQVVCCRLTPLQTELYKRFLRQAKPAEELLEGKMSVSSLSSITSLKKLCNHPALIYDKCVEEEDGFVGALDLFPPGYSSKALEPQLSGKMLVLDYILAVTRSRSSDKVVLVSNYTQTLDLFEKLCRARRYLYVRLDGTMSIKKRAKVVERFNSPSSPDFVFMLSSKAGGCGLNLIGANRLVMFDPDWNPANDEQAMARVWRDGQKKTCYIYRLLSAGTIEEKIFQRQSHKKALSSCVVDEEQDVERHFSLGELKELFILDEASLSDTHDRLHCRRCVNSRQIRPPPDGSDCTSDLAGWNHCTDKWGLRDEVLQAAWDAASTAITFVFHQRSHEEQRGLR

Trypsin = Trypsin (Sus scrofa, UniProt P00761); assay: trypsin protease activity blockade – biochemical, quenched peptide fluorescence, cherry-pick, selectivity assay for Rce1 protease inhibitor project, dose response (AID 488789)
[16] = THP-1 cell cytotoxicity, dose response, cytotoxicity control for non-replicating M. tuberculosis project (AID 489025); assay type: functional
[17] = HepG2 cell cytotoxicity, dose response, cytotoxicity control for non-replicating M. tuberculosis project (AID 489018); assay type: functional; settings: Mycobacterium tuberculosis
Cannabinoid receptor 1 [18] = biological target: T5, Cannabinoid receptor 1 (Homo sapiens, UniProt P21554); assay: SAR analysis of antagonists of the Cannabinoid Receptor 1 using an Image-Based Assay - Set 3. [Related pubchem assays (depositor defined):AID1961, AID1965]; assay type: functional
Cannabinoid receptor 2 [19] = biological target: T6, Cannabinoid receptor 2 (Homo sapiens, UniProt P34972); assay: SAR analysis of agonists of the Cannabinoid Receptor 2 using an Image-Based Assay - Set 2. [Related pubchem assays (depositor defined):AID1961, AID1965]; assay type: functional
Cannabinoid receptor 2 [20] = biological target: T6, Cannabinoid receptor 2; assay: SAR analysis of antagonists of the Cannabinoid Receptor 2 using an Image-Based Assay - Set 2. [Related pubchem assays (depositor defined):AID1961, AID1965]; assay type: functional
[21] = biological target: G-protein coupled receptor 55 (Homo sapiens, UniProt Q9Y2T6); assay: SAR analysis of selective Agonists of GPR55 using an Image-Based Assay - Set 2. [Related pubchem assays (depositor defined):AID1961, AID1965]; assay type: functional
[22] = biological target: T7, G-protein coupled receptor 35 (Homo sapiens, UniProt Q9HC97); assay: SAR analysis of Antagonists of the GPR35 Receptor using an Image-Based Assay - Set 4. [Related pubchem assays (depositor defined):[…]]; assay type: functional
Cannabinoid receptor 1 [23] = biological target: T5, Cannabinoid receptor 1; assay: SAR analysis of agonists of the Cannabinoid Receptor 1 using an Image-Based Assay - Set 3. [Related pubchem assays (depositor defined):AID1961, AID1965]; assay type: functional
[24] = biological target: T7, G-protein coupled receptor 35; assay: SAR analysis of Agonists of the GPR35 Receptor using an Image-Based Assay - Set 3. [Related pubchem assays (depositor defined):AID1961, AID1965]; assay type: functional
[25] = biological target: 1-acylglycerol-3-phosphate O-acyltransferase ABHD5/Perilipin-5 (Homo sapiens, UniProt Q00G26+Q8WTS1); assay: Luminescence-based biochemical high throughput dose response assay for inhibitors of the interaction of the lipase co-activator protein, abhydrolase domain containing 5 (ABHD5) with perilipin-5 (MLDP; PLIN5) (2K validation set). [Related pubchem assays (depositor defined):AID493035, AID493241]
Perilipin-1/ABHD5 = Perilipin-1/ABHD5 (Homo sapiens, UniProt O60240+Q8WTS1); assay: Luminescence-based biochemical high throughput dose response assay for inhibitors of the interaction of the lipase co-activator protein, abhydrolase domain containing 5 (ABHD5) with perilipin-1 (PLIN1) (2K validation set). [Related pubchem assays (depositor defined):AID493027, AID493057]
Sequence of Perilipin-1/ABHD5 (Q8WTS1 whole entry, the tested form may be a part): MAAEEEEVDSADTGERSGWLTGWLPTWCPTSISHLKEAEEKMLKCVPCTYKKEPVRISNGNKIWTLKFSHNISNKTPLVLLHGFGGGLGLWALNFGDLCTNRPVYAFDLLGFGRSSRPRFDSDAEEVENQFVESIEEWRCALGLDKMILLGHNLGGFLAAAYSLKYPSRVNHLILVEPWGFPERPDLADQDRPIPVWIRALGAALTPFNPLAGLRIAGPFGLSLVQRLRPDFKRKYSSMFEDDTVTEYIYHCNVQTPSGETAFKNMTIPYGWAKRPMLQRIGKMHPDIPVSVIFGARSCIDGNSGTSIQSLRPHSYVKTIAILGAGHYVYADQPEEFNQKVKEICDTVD
Sequence of Perilipin-1/ABHD5 (O60240 whole entry, the tested form may be a part): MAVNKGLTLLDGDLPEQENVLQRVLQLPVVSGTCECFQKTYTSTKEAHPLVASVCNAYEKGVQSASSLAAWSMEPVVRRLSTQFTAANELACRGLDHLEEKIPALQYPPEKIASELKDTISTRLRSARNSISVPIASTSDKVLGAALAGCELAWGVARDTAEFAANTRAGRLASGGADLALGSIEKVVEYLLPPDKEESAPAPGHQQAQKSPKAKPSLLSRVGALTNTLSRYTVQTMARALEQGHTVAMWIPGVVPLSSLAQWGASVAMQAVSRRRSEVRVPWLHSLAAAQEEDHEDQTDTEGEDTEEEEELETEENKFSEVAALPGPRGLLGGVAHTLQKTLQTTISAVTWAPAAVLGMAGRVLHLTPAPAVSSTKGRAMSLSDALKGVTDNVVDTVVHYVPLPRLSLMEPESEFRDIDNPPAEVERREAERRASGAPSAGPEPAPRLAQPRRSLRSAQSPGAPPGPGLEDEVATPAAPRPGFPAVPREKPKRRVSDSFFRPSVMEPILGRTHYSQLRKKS

T3 sequence (P41145 whole entry): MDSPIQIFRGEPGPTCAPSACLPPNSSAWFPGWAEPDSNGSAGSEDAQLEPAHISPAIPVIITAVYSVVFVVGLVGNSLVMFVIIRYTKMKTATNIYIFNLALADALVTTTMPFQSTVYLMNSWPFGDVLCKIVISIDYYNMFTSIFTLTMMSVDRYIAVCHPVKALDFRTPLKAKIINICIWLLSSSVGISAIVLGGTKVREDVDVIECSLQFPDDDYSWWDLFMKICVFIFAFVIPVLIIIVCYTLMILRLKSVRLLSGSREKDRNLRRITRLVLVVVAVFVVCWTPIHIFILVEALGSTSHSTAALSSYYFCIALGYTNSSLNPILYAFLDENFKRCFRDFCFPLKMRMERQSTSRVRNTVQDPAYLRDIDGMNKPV
T7 sequence (Q9HC97 whole entry): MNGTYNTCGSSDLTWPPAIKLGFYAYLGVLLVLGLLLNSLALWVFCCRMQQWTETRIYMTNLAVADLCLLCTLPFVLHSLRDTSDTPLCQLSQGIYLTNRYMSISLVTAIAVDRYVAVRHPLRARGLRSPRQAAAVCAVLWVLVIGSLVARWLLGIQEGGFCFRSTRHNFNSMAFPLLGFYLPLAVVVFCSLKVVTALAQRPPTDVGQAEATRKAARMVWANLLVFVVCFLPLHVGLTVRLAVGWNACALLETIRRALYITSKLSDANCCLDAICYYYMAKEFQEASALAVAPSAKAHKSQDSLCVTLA
T5 sequence (P21554 whole entry): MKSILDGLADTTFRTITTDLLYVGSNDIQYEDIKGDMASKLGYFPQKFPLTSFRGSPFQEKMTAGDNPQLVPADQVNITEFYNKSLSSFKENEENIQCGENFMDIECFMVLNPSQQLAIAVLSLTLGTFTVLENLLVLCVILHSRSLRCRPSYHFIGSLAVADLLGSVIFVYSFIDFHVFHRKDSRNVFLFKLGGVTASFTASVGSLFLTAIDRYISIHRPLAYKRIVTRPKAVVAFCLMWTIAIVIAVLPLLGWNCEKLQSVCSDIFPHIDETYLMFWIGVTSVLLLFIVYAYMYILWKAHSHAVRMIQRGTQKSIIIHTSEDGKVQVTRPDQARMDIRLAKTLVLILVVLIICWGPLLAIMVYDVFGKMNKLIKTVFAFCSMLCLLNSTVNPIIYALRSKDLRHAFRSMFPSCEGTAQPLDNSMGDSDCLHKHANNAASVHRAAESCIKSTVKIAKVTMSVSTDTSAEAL
T6 sequence (P34972 whole entry): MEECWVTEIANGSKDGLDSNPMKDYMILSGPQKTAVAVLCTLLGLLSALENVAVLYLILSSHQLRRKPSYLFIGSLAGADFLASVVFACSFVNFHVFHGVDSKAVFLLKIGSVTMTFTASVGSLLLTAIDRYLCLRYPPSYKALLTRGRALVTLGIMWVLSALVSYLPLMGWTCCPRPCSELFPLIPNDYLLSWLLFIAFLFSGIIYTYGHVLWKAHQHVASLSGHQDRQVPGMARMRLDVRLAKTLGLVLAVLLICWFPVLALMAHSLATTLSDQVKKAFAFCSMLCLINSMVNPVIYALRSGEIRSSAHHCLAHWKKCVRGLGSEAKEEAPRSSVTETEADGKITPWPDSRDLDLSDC
Sequence of Delta-type opioid receptor (P41143 whole entry): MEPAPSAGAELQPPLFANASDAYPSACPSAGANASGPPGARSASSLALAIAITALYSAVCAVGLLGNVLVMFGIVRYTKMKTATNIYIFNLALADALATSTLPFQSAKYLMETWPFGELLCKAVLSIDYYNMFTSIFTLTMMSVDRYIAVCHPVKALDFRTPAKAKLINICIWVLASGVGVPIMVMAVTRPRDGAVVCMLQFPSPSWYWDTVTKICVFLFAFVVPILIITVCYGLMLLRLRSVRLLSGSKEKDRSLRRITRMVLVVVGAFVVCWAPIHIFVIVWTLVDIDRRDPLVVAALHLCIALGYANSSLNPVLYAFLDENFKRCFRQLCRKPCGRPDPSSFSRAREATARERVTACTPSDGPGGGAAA
Sequence of Mu-type opioid receptor (P35372 whole entry): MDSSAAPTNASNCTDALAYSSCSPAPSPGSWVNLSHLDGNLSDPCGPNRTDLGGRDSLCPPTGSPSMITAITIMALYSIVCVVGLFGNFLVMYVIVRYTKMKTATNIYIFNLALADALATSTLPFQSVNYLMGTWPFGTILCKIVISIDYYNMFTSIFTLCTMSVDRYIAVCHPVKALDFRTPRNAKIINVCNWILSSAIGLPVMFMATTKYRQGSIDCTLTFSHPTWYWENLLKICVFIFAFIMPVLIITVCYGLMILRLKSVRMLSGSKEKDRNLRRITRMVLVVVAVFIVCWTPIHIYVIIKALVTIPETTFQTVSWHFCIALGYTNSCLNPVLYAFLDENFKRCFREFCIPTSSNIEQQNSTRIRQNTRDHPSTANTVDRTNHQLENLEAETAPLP
Sequence of G-protein coupled receptor 55 (Q9Y2T6 whole entry): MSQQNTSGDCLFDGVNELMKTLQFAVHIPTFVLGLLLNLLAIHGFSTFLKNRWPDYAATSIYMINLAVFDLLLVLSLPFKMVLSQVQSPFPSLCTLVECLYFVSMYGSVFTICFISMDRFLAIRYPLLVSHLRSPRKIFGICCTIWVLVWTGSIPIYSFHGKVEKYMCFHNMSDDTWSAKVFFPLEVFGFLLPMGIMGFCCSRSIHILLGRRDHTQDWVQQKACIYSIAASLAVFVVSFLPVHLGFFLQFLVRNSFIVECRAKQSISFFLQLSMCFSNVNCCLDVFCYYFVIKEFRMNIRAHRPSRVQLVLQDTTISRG
Sequence of 1-acylglycerol-3-phosphate O-acyltransferase ABHD5/Perilipin-5 (Q00G26 whole entry, the tested form may be a part): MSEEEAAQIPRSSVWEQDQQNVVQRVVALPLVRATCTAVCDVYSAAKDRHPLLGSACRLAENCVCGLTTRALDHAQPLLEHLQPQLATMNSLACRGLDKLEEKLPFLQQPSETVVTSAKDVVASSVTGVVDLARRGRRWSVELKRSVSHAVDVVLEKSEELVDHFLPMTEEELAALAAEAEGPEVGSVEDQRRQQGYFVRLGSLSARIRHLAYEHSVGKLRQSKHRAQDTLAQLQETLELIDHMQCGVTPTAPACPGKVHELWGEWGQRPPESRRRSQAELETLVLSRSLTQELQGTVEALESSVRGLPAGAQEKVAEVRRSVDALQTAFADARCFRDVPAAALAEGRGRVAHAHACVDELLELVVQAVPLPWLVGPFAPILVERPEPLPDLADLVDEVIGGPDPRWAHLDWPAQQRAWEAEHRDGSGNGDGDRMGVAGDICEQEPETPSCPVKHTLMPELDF
Sequence of 1-acylglycerol-3-phosphate O-acyltransferase ABHD5/Perilipin-5 (Q8WTS1 whole entry, the tested form may be a part): as the sequence (Q8WTS1 whole entry, the tested form may be a part) above
Sequence of Dual specificity protein phosphatase 3 (P51452 whole entry): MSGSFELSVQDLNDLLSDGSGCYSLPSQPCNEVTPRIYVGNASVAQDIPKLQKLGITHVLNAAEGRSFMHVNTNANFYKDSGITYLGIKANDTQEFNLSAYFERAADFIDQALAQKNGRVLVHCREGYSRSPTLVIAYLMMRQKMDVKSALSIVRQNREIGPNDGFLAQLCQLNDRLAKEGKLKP
Sequence of CAAX prenyl protease 2 (Q03530 whole entry): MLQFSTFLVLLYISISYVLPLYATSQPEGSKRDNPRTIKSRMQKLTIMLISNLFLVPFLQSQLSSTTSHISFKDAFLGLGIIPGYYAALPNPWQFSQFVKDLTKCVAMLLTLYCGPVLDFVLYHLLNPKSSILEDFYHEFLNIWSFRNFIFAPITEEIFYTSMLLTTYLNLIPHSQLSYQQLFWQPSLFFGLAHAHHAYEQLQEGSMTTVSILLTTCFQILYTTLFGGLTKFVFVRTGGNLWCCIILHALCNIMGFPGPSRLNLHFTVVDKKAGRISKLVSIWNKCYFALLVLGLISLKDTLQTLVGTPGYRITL
Sequence of Trypsin (P00761 whole entry): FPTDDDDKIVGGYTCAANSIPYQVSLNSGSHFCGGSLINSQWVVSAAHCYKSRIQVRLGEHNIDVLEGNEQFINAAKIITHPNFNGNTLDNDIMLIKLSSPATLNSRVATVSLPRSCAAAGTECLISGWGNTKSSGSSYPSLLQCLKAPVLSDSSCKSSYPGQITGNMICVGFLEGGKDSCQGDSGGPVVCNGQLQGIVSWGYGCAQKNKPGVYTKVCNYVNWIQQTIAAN

O=C(O)c1ccc(C=c2sc(=CC(=O)c3ccco3)[nH]c2=O)cc1
IC50 [1]: > 100 µM (inactive) | IC50 [2]: 16.2 µM (active) | IC50 [3]: 4.09 µM (active)

CC(C)Cc1ccc(S(=O)(=O)NCc2ccc(C(=O)NCCN(Cc3ccccc3)C(C)C)cc2)cc1
IC50 (Mu-type opioid receptor): > 32 µM (inactive) | IC50 [4]: 0.595 µM (active) | IC50 [5]: 4.02 µM (active) | IC50 [6]: > 32 µM (inactive)

Cc1ccccc1C(=O)/N=c1\sccn1C
IC50 (Coagulation factor XII): > 50 µM (inactive)

Cc1ccc(Nc2ccc(-c3ccncc3)s2)c(Br)c1
EC50 [7]: 3.92 µM (active)

O=C(COc1ccc(/C=N/NC(=O)c2cc3ccccc3o2)cc1Cl)Nc1ccccc1
EC50 (Integrin alpha-4): 23.4 µM (active) | EC50 [8]: 19.2 µM (active) | EC50 [9]: 2 µM (active) | IC50 [10]: 2.65 µM (active) | EC50 [11]: 191 µM (active)

COc1ccc(C2c3c(ncn(CCN4CCOCC4)c3=N)Oc3ccc4ccccc4c32)cc1 (stereo not given)
IC50 (Vero): 18.7 µM (active) | EC50 [12]: 12.7 µM (active) | AC50 (CAAX prenyl protease 2): 15.7 µM (active) | EC50 [11]: 11.1 µM (active)

CCc1ccc(S(=O)(=O)NCc2ccc(C(=O)NCCN3Cc4ccccc4C3)cc2)cc1
IC50 (Mu-type opioid receptor): > 32 µM (inactive) | IC50 [13]: > 32 µM (inactive) | IC50 [6]: > 32 µM (inactive) | IC50 [14]: > 20 µM (inactive)

COc1ccc2c(c1)c1ncn(CCN3CCCC3)c(=O)c1n2C
AC50 [15]: 23.3 µM (active) | AC50 (Trypsin): 19.7 µM (active)

Clc1ccc(SCCCCN2CCNCC2)cc1
CC50 [16]: > 40 µM (active) | CC50 [17]: > 20 µM (active)

CCc1cc(C(=O)Nc2cc(S(=O)(=O)N3CCOCC3)ccc2OC)sc1C
IC50 (Cannabinoid receptor 1 [18]): > 32 µM (inactive) | EC50 (Cannabinoid receptor 2 [19]): > 32 µM (inactive) | IC50 (Cannabinoid receptor 2 [20]): > 32 µM (inactive) | EC50 [21]: 2.22 µM (active) | IC50 [22]: > 32 µM (inactive) | EC50 (Cannabinoid receptor 1 [23]): > 32 µM (inactive) | EC50 [24]: > 32 µM (inactive)

O=C(CN1C(=O)/C(=C/c2cccc(Br)c2)SC1=S)Nc1cccnc1
IC50 [25]: 16 µM (inactive) | IC50 (Perilipin-1/ABHD5): 20.8 µM (inactive)
